Type in all cases: in vivo
Test [1] has as its system ryegrass, Italian (Italian ryegrass, Lolium multiflorum). Description: Test A preemergence. Particulars: Lolium multiflorum, pre-emergence, 240 h; for pest or weed control at 125 g/ha: 125 g ai/ha, preemergence, 0 to 100 scale where 0 is no effect and 100 is complete control, read-out: Ryegrass, Italian plant response rating; for pest or weed control at 500 g/ha: 500 g ai/ha, Preemergence, visual injury vs untreated controls after approximately 10 d, read-out: Ryegrass, Italian plant response rating (0 to 100 scale where 0 is no effect and 100 is complete control). The method, boiled down: (§1)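 Each rating is a visual injury score from 0 to 100 given about 10 d after treatment, judged against untreated controls kept alongside in the greenhouse. In loam soil–sand blend, seeds got a preemergence directed soil spray, while postemergence plants were 2 to 10 cm tall at spraying.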

Test [2] relates to barnyardgrass (Echinochloa crus-galli). Nature of the test: Test A preemergence. The following applies: Echinochloa crus-galli, pre-emergence, 240 h; for pest or weed control at 125 g/ha: 125 g ai/ha, preemergence, 0 to 100 scale where 0 is no effect and 100 is complete control, read-out: Barnyardgrass plant response rating; for pest or weed control at 500 g/ha: 500 g ai/ha, Preemergence, visual injury vs untreated controls after approximately 10 d, read-out: Barnyardgrass plant response rating (0 to 100 scale where 0 is no effect and 100 is complete control). The method, boiled down: as §1

In test [3] the test system is ragweed (common ragweed, Ambrosia elatior). Description: Test A preemergence. Particulars: Ambrosia artemisiifolia, pre-emergence, 240 h; for pest or weed control at 125 g/ha: 125 g ai/ha, preemergence, 0 to 100 scale where 0 is no effect and 100 is complete control, read-out: Ragweed plant response rating; for pest or weed control at 500 g/ha: 500 g ai/ha, Preemergence, visual injury vs untreated controls after approximately 10 d, read-out: Ragweed plant response rating (0 to 100 scale where 0 is no effect and 100 is complete control). The essentials: as §1

In test [4] the test system is giant foxtail (Setaria faberii). Description: Test A preemergence. The following applies: Setaria faberi, pre-emergence, 240 h; for pest or weed control at 125 g/ha: 125 g ai/ha, preemergence, 0 to 100 scale where 0 is no effect and 100 is complete control, read-out: Foxtail, Giant plant response rating; for pest or weed control at 500 g/ha: 500 g ai/ha, Preemergence, visual injury vs untreated controls after approximately 10 d, read-out: Foxtail, Giant plant response rating (0 to 100 scale where 0 is no effect and 100 is complete control). The essentials: as §1

Test [5] concerns Kochia (Kochia scoparia). Nature of the test: Test A preemergence. Particulars: Bassia scoparia, pre-emergence, 240 h; for pest or weed control at 125 g/ha: 125 g ai/ha, preemergence, 0 to 100 scale where 0 is no effect and 100 is complete control, read-out: Kochia plant response rating; for pest or weed control at 500 g/ha: 500 g ai/ha, Preemergence, visual injury vs untreated controls after approximately 10 d, read-out: Kochia plant response rating (0 to 100 scale where 0 is no effect and 100 is complete control). The method, boiled down: as §1

Test [6] concerns pigweed (Amaranthus retroflexus). Description: Test A preemergence. The following applies: Amaranthus retroflexus, pre-emergence, 240 h; for pest or weed control at 125 g/ha: 125 g ai/ha, preemergence, 0 to 100 scale where 0 is no effect and 100 is complete control, read-out: Pigweed plant response rating; for pest or weed control at 500 g/ha: 500 g ai/ha, Preemergence, visual injury vs untreated controls after approximately 10 d, read-out: Pigweed plant response rating (0 to 100 scale where 0 is no effect and 100 is complete control).

In test [7] the test system is ryegrass, Italian (Italian ryegrass, Lolium multiflorum). Nature of the test: Test A postemergence. Particulars: Lolium multiflorum, post-emergence, 240 h, 125 g ai/ha, postemergence, visual injury rating after approximately 10 d; read-out: Ryegrass, Italian plant response rating (0 to 100 scale, 0 no effect, 100 complete control). The essentials:
as §1

The subject of test [8] is barnyardgrass (Echinochloa crus-galli). Description: Test A postemergence. The following applies: Echinochloa crus-galli, post-emergence, 240 h, 125 g ai/ha, postemergence, visual injury rating after approximately 10 d; read-out: Barnyardgrass plant response rating (0 to 100 scale, 0 no effect, 100 complete control). The method, boiled down: as §1
Test [9] relates to blackgrass (Alopecurus myosuroides). Description: Test A postemergence. The following applies: Alopecurus myosuroides, post-emergence, 240 h, 125 g ai/ha, postemergence, visual injury rating after approximately 10 d; read-out: Blackgrass plant response rating (0 to 100 scale, 0 no effect, 100 complete control). The method, boiled down: as §1
In test [10] the test system is ragweed (common ragweed, Ambrosia elatior). Description: Test A postemergence. Particulars: Ambrosia artemisiifolia, post-emergence, 240 h, 125 g ai/ha, postemergence, visual injury rating after approximately 10 d; read-out: Ragweed plant response rating (0 to 100 scale, 0 no effect, 100 complete control). The method, boiled down:
as §1

Test [11] deals with giant foxtail (Setaria faberii). Nature of the test: Test A postemergence. The following applies: Setaria faberi, post-emergence, 240 h, 125 g ai/ha, postemergence, visual injury rating after approximately 10 d; read-out: Foxtail, Giant plant response rating (0 to 100 scale, 0 no effect, 100 complete control). The method, boiled down:
as §1

The test system of test [12] is Galium (catchweed bedstraw, Galium aparine). Nature of the test: Test A postemergence. The following applies: Galium, post-emergence, 240 h, 125 g ai/ha, postemergence, visual injury rating after approximately 10 d; read-out: Galium plant response rating (0 to 100 scale, 0 no effect, 100 complete control). The method, boiled down: as §1
Test [13] has as its system Kochia (Kochia scoparia). Description: Test A postemergence. Particulars: Bassia scoparia, post-emergence, 240 h, 125 g ai/ha, postemergence, visual injury rating after approximately 10 d; read-out: Kochia plant response rating (0 to 100 scale, 0 no effect, 100 complete control). The method, boiled down:
as §1

Test [14] concerns wheat (Triticum aestivum). Description: Test A postemergence. Particulars: Triticum aestivum, post-emergence, 240 h, 125 g ai/ha, postemergence, visual injury rating after approximately 10 d; read-out: Wheat plant response rating (0 to 100 scale, 0 no effect, 100 complete control). The method, boiled down: as §1
For test [15], the system named is corn (Zea mays). Nature of the test: Test A postemergence. The following applies: Zea mays, post-emergence, 240 h, 125 g ai/ha, postemergence, visual injury rating after approximately 10 d; read-out: Corn plant response rating (0 to 100 scale, 0 no effect, 100 complete control). The method, boiled down: as §1

`CN1C[C@H](c2cc(F)cc(F)c2)[C@@H](C(=O)Nc2ccc(C(F)(F)F)cn2)C1=O` [Compound 869]: the pest or weed control at 125 g/ha in test [1] turned out to be 0%; in [2], 60%; in test [3], 0%; in [4], 90%; in test [5], 0%; in [6] it was 0%. The pest or weed control at 125 g/ha turned out to be 0% in [7]; 80% in test [8]; 0% in test [9]; 0% in test [10]; 60% in [11]; 0% in test [12]. In addition, in [13], the pest or weed control at 125 g/ha stood at 0%. The pest or weed control at 500 g/ha in test [1] stood at 0%; in [2] it was 90%; in test [3], 0%; in test [4], 90%; in test [5] it was 0%; in test [6], 0%. In addition, the plant injury at 125 g/ha in test [14] and in test [15] was 0% in each case.
As for `Cc1c(F)ccc([C@H]2CNC(=O)[C@@H]2C(=O)Nc2ccccc2S(C)(=O)=O)c1F` [Compound 832], the pest or weed control at 125 g/ha in test [1] amounted to 0%; in test [2], 40%; in [3] it was 40%; in test [4], 0%; in test [5], 90%; in test [6], 0%. Also, the pest or weed control at 125 g/ha worked out at 20% in [7]; 70% in test [8]; 0% in test [9]; 20% in [10]; 0% in test [11]; 50% in [12]. For the same compound, the pest or weed control at 125 g/ha in test [13] was found to be 20%. For the same compound, the pest or weed control at 500 g/ha in test [1] worked out at 30%; in test [2] it was 80%; in test [3], 60%; in [4], 80%; in [5], 100%; in [6], 30%. Besides, the plant injury at 125 g/ha in test [14] and in test [15] was 0% throughout.
